According to US11795460B2, “Compositions and methods for TTR gene editing and treating ATTR amyloidosis” (Intellia Therapeutics, Inc., priority 2017, dated 2023):

Assays:
TTR [1] = test: TTR editing in primary human hepatocytes transfected with Spy Cas9 mRNA and dgRNAs (Table 9); assay type: cell-based; conditions: dgRNA co-transfected with Spy Cas9 mRNA (SEQ ID NO:2)
Method in brief: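 PHH sequentially lipofected with Spy Cas9 mRNA (100 ng), then crRNA plus tracrRNA (25 nM each) dual-guide lipoplex. Cells harvested 24, 48 or 72 h post-transfection; TTR target amplicons sequenced on Illumina MiSeq, editing given as percent reads with indels or substitutions over total reads.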

off-target genomic sites = test: Off-target oligo insertion based assay in HEK293_Cas9 cells, dgRNAs and sgRNAs (Tables 23, 24); assay type: cell-based, human; conditions: Table 23; TTR dgRNAs in HekCas9 cells, oligo insertion based assay
Method in brief: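 In HEK293 cells constitutively expressing Spy Cas9, crRNA (15 nM) plus trRNA (15 nM), or modified sgRNAs, were lipofected with donor oligo (10 nM). Genomic DNA was collected at 24 h, and oligo-insertion libraries were sequenced on MiSeq/HiSeq to map potential off-target cleavage sites.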

TTR [2] = test: TTR editing in primary human hepatocytes electroporated with Spy Cas9 protein loaded with dgRNAs (Table 7); assay type: cell-based; conditions: dgRNA electroporated with Spy Cas9 protein (RNP)
Method in brief: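 Editing efficiency is the fraction of NGS reads carrying insertions, deletions or substitutions at the TTR target, measured on MiSeq amplicons from DNA harvested 24, 48 or 72 h post-delivery. Cas9–dgRNA ribonucleoprotein was nucleofected (P3 buffer, EX-147) into primary human or cyno hepatocytes.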

Sequence	Avg % Deletion (TTR [1])	Avg % Edit (TTR [1])	Avg % Insert (TTR [1])	# Sites (off-target integration sites detected) (off-target genomic sites)	Avg % Deletion (TTR [2])	Avg % Edit (TTR [2])	Avg % Insert (TTR [2])
AGGCAGUCCUGCCAUCAAUG (tested as dual guide RNA, chemistry not given here) [CR003348]	15.80%	18.00%	2.30%	3	17.27%	28.53%	11.30%
CCUCCUCUGCCUUGCUGGAC (tested as dual guide RNA, chemistry not given here) [CR003336]	0.80%	16.93%	16.20%	2	0.70%	39.17%	38.43%
UGAAUCCAAGUGUCCUCUGA (tested as dual guide RNA, chemistry not given here) [CR005303]	0.50%	35.50%	35.00%	1	0.53%	53.57%	53.07%
GAAAGGCUGCUGAUGACACC (tested as dual guide RNA, chemistry not given here) [CR003352]	5.07%	16.80%	11.73%	2	4.30%	29.83%	25.63%
